Reference: publication PMC8249783, “A novel multikinase inhibitor SKLB‐YTH‐60 ameliorates inflammation and fibrosis in bleomycin‐induced lung fibrosis mouse models” (Cell Proliferation, 2021)
Several values for one entry are separate records, joined by “and”; a condition that tells them apart may be missing. Equal values may be shown once. Read-outs that look alike come from different tables or passages of the source.

Assay: Pharmacokinetics study after IV and PO administration to SD rats
Assay type: in vivo
Conditions: for concentration at 2 h / concentration at 4 h / concentration at 6 h / concentration at 8 h / AUC / MRT: SD, rat, plasma
Description: The appropriate amount of YTH‐60 was accurately weighed, added to the final volume of 5% DMSO, 40% PEG400 and 55% normal saline, and vortexed or ultrasonicated to fully mix. Then, 0.4 and 2 mg·mL^−1 of clarified dosing solution was used for intravenous administration and oral gavage administration. SD rats were transferred from the Experimental Animal Library (999 M‐017), Shanghai Xipuer‐Beikai Experimental Animal Co. Ltd. After oral, intravenous or intragastric administration, blood was collected by jugular vein or other suitable methods. Approximately 0.20 mL of each sample was collected, in the presence of heparin sodium as an anticoagulant. After the blood samples were collected, they were placed on ice and centrifuged to separate plasma within 2 hours (centrifugation conditions: centrifugal force 6800 g, 6 minutes, 2‐8°C). The collected plasma samples were stored at −80°C before analysis by LC‐MS/MS‐18. After analysis, the remaining plasma samples were stored at −80°C for a period of 1 month.

## COc1cc(OC)c(Cl)c(-c2ccc3c(/C=C/c4ccc(N(C)C(=O)CN5CCN(C)CC5)cc4)n[nH]c3c2)c1Cl [YTH‐60, (E)‐N‐(4‐(2‐(6‐(2,6‐dichloro‐3,5‐dimethoxyphenyl)‐1H‐indazol‐3‐yl)vinyl)phenyl)‐N‐methyl‐2‐(4‐methylpiperazin‐1‐yl)acetamide]
IV 2 mg/kg, 0.083 h, individual animals 101, 102, 103, 2 mg/kg
  Individual plasma concentration: 423.84 ng/mL and 362.43 ng/mL
IV 2 mg/kg, 0.25 h, individual animals 101, 102, 103, 2 mg/kg
  Individual plasma concentration: 168.72 ng/mL and 204.54 ng/mL
IV 2 mg/kg, 0.5 h, individual animals 101, 102, 103, 2 mg/kg
  Individual plasma concentration: 128.91 ng/mL and 163.29 ng/mL
IV 2 mg/kg, 1 h, individual animals 101, 102, 103, 2 mg/kg
  Individual plasma concentration: 107.71 ng/mL and 131.39 ng/mL
IV 2 mg/kg, 2 h, individual animals 101, 102, 103, 2 mg/kg
  Individual plasma concentration: 69.27 ng/mL and 80.59 ng/mL
IV 2 mg/kg, 4 h, individual animals 101, 102, 103, 2 mg/kg
  Individual plasma concentration: 42.78 ng/mL and 48.71 ng/mL
IV 2 mg/kg, 6 h, individual animals 101, 102, 103, 2 mg/kg
  Individual plasma concentration: 34.45 ng/mL and 41.43 ng/mL
IV 2 mg/kg, 8 h, individual animals 101, 102, 103, 2 mg/kg
  Individual plasma concentration: 22.38 ng/mL and 32.19 ng/mL
IV 2 mg/kg, 24 h, individual animals 101, 102, 103, 2 mg/kg
  Individual plasma concentration: 2.68 ng/mL and 3.51 ng/mL
PO 20 mg/kg, 0.25 h, individual animals 201, 202, 203, 20 mg/kg
  Individual plasma concentration: 38.10 ng/mL and 22.94 ng/mL
PO 20 mg/kg, 0.5 h, individual animals 201, 202, 203, 20 mg/kg
  Individual plasma concentration: 25.31 ng/mL and 35.39 ng/mL
PO 20 mg/kg, 1 h, individual animals 201, 202, 203, 20 mg/kg
  Individual plasma concentration: 34.05 ng/mL and 26.26 ng/mL
PO 20 mg/kg, 2 h, individual animals 201, 202, 203, 20 mg/kg
  Individual plasma concentration: 87.47 ng/mL and 35.35 ng/mL and 57.08 ng/mL
PO 20 mg/kg, 4 h, individual animals 201, 202, 203, 20 mg/kg
  Individual plasma concentration: 83.13 ng/mL and 87.88 ng/mL
PO 20 mg/kg, 6 h, individual animals 201, 202, 203, 20 mg/kg
  Individual plasma concentration: 85.16 ng/mL and 114.92 ng/mL
PO 20 mg/kg, 8 h, individual animals 201, 202, 203, 20 mg/kg
  Individual plasma concentration: 79.77 ng/mL and 97.21 ng/mL
PO 20 mg/kg, 24 h, individual animals 201, 202, 203, 20 mg/kg
  Individual plasma concentration: 14.36 ng/mL and 18.49 ng/mL
iv, 2 mg/kg, IV 2 mg/kg, 2 h, individual animals 101, 102, 103, read-out: Individual plasma concentration
  concentration at 2 h: 0.0683 µg/mL
iv, 2 mg/kg, IV 2 mg/kg, 2 h, read-out: Mean plasma concentration
  concentration at 2 h: 0.0727 µg/mL
iv, 2 mg/kg, IV 2 mg/kg, 4 h, individual animals 101, 102, 103, read-out: Individual plasma concentration
  concentration at 4 h: 0.0411 µg/mL
iv, 2 mg/kg, IV 2 mg/kg, 4 h, read-out: Mean plasma concentration
  concentration at 4 h: 0.0442 µg/mL
iv, 2 mg/kg, IV 2 mg/kg, 6 h, individual animals 101, 102, 103, read-out: Individual plasma concentration
  concentration at 6 h: 0.0368 µg/mL
iv, 2 mg/kg, IV 2 mg/kg, 6 h, read-out: Mean plasma concentration
  concentration at 6 h: 0.0376 µg/mL
iv, 2 mg/kg, IV 2 mg/kg, 8 h, individual animals 101, 102, 103, read-out: Individual plasma concentration
  concentration at 8 h: 0.0204 µg/mL
iv, 2 mg/kg, SD rats, i.v. 2 mg·kg^−1, read-out: AUC0‐t
  AUC: 0.773 ± 0.0994 µg·h/mL
iv, 2 mg/kg, SD rats, i.v. 2 mg·kg^−1, read-out: AUC0‐∞
  AUC: 0.793 ± 0.104 µg·h/mL
iv, 2 mg/kg, SD rats, i.v. 2 mg·kg^−1, read-out: MRT0‐t
  MRT: 4.5 ± 0.28 h
iv, 2 mg/kg, SD rats, i.v. 2 mg·kg^−1, read-out: MRT0‐∞
  MRT: 5.16 ± 0.36 h
iv, 2 mg·kg^−1, SD rats, after an IV dose, read-out: mean AUC(0‐t)
  AUC: 0.773 µg·h/mL
po, 20 mg/kg, PO 20 mg/kg, 2 h, read-out: Mean plasma concentration
  concentration at 2 h: 0.06 µg/mL
po, 20 mg/kg, PO 20 mg/kg, 4 h, individual animals 201, 202, 203, read-out: Individual plasma concentration
  concentration at 4 h: 0.0847 µg/mL
po, 20 mg/kg, PO 20 mg/kg, 4 h, read-out: Mean plasma concentration
  concentration at 4 h: 0.0852 µg/mL
po, 20 mg/kg, PO 20 mg/kg, 6 h, individual animals 201, 202, 203, read-out: Individual plasma concentration
  concentration at 6 h: 0.0825 µg/mL
po, 20 mg/kg, PO 20 mg/kg, 6 h, read-out: Mean plasma concentration
  concentration at 6 h: 0.0942 µg/mL
po, 20 mg/kg, PO 20 mg/kg, 8 h, individual animals 201, 202, 203, read-out: Individual plasma concentration
  concentration at 8 h: 0.0674 µg/mL
po, 20 mg/kg, PO 20 mg/kg, 8 h, read-out: Mean plasma concentration
  concentration at 8 h: 0.0815 µg/mL
